Laboratory results published in US3984555A, “Therapeutic piperazinylalkyl-quinazolone-(4)-derivatives” (Byk Gulden Lomberg Chemische Fabrik Gesellschaft mit …, priority 1970, dated 1976).
Where two headings read alike, the source gives them in different places.

Key:
[1] = system: defence reaction after the thermal stimulation of the tail of the mouse; assay: Analgesic effect on the mouse: delay in defence reaction after thermal stimulation of the tail (Table IV); format: in vivo; conditions: po, read-out: Delay in the defence reaction after the thermal stimulation of the tail of the mouse by 25% by mg/kg per os
Excerpt: From Table IV below one can see the analgesic action, measured in terms of the delayed reaction during the thermal irritation of the mouse tail. The analgesically effective doses are also below those which reduce the motor behaviour, that is to say the normal movement processes (cf. Table III).
Analgesic effect on the mouse
Delay in the defence reaction after
the thermal stimulation of the tail

mouse [2] = assay: Mice falling from a rotating bar (Table III, a); format: in vivo; conditions: ip, read-out: a PD50 mg/kg i.p.
Excerpt: The central damping actions of the piperazinyl quinazolones on the mouse can be seen from Table III.
a = dose at which 50% of the mice fall from a rotating bar;

[3] = system: running activity of mice pre-treated with α-amphetamine sulphate; assay: Inhibition of running activity of mice pre-treated with α-amphetamine sulphate (Table III, c); format: in vivo; conditions: Mus musculus, ip, 3 h, 5 mg/kg α-amphetamine sulphate, 180 minutes; for inhibition in vivo at 12 mg/kg: 12mg/kg i/p, read-out: c % inhibition of motility in the treadwheel by 12mg/kg i/p; for inhibition in vivo at 25 mg/kg: 25mg/kg i/p, read-out: c % inhibition of motility in the treadwheel by 25mg/kg i/p
[4] = system: duration of sleep of mice under hexobarbital; assay: Prolongation of hexobarbital sleep in mice (Table III, d); format: in vivo; conditions: Mus musculus, ip; 15 mg/kg i.p.; 75 mg/kg hexobarbital; read-out: d % prolongation of sleep under hexebarbital by 15 mg/kg i.p.
Protocol: d = percentage prolongation of the duration of sleep of mice which had received 75 mg/kg. of hexobarbital, reckoned on the duration of the sleep of control animals.

mouse [5] = assay: Inhibition of spontaneous motility, sedation, muscular relaxation, loss of grip on horizontal wire mesh in mice (Table III, b); format: in vivo; conditions: po, dose at which an average of 50% of the mice display symptoms, read-out: b SD50 mg/kg oral
[6] = system: hypertensive effect of 1-adrenalin; assay: 50% inhibition of hypertensive effect of 0.001 mg/kg i/v 1-adrenalin on the despinalised rat (Table II); format: in vivo; conditions: iv, read-out: 50% inhibition of hypertensive effect after i/v dose of Adrenalin by mg/kg i/v
Protocol: (§1) also on the hypertensive effect of 0.001 mg/kg i/v 1-adrenalin and
(§2) blood pressure and the cardiac frequency of the narcosed rate and also on
(§3) the hypertensive effect of 0.001 mg/kg i.v. 1-adrenaline and noradrenaline
(§4) on the despinalised rat. The mean lethal doses for the mouse are also

[7] = LD50 (mean lethal dose) on the mouse (Table II); conditions: in vivo
Excerpt: as §4

[8] = system: hypertensive effect of noradrenalin; assay: 50% inhibition of hypertensive effect of 0.001 mg/kg i/v noradrenalin on the despinalised rat (Table II); format: in vivo; conditions: iv, read-out: 50% inhibition of hypertensive effect after i/v dose of Noradrenalin by mg/kg i/v
Protocol: as §1, §2, §3, §4

[9] = system: blood pressure and cardiac frequency of the narcotised rat; assay: Influence on the blood pressure and the cardiac frequency of the narcotised rat (Table II); format: in vivo; conditions: iv, i/v, read-out: Blood pressure lowered by 30% by mg/kg i/v
Excerpt: Influence on the blood pressure and the cardiac frequency of the
blood pressure and the cardiac frequency of the narcosed rate and also on […]

[10] = system: blood pressure and cardiac frequency of the narcotised cat; assay: Influence on the blood pressure and cardiac frequency of the narcotised cat (Table I); format: in vivo; parameters: unit not given here; conditions: for Blood pressure lowered by 30% by: dose lowering blood pressure by 30%; for Blood pressure lowered by 50% by: dose lowering blood pressure by 50%
Excerpt: (§5) Influence on the blood pressure and cardiac frequency and also
(§6) on the carotid sinus reflex of the narcotised cat
(§7) Table I provides a general summary of the influence of different piperazinylquinazolones on the blood pressure, the cardiac frequency and the carotid sinus reflex of the narcotised cat.

carotid sinus reflex = assay: Inhibition of the carotid sinus reflex of the narcotised cat (Table I); format: in vivo; parameters: unit not given here
Excerpt: as §5, §6, §7
The inhibition of the carotid sinus reflex brought about by the piperazinyl quinazolones occurs at lower doses than the spontaneous lowering of the blood pressure in the cat.

[11] = dose at which 50% of the mice fall from a rotating bar

Row | SMILES | ED25 ([1]; mouse, per os, 25% delay) | ED50 (mouse [2]) | inhibition in vivo at 12 mg/kg [3] | inhibition in vivo at 25 mg/kg [3] | change in vivo at 15 mg/kg [4] | ED50 (mouse [5]) | ED50 [6] | LD50 [7] | ED50 [8] | ED30 [9] | also measured
1 | Cc1c(N(C)C)c(=O)n(-c2ccccc2)n1C [Aminophenazone, 4-dimethylamino-1-phenyl-2,3-dimethylpyrazolone-5, reference compound] | 80 mg/kg |  |  |  |  |  |  |  |  |  | 
2 | CNC1=Nc2ccc(Cl)cc2C(c2ccccc2)=[N+]([O-])C1 [Chlordiazepoxide, chlorodiazepoxide, reference compound] |  | 38 mg/kg | 15% | 19% | 324% | 8 mg/kg |  |  |  |  | 
3 | COc1cc2nc(CCN3CCN(c4ccccc4)CC3)[nH]c(=O)c2cc1OC [Example 1, 2-(2-(1-phenylpiperazinyl-4)ethyl)-6,7-dimethoxy-4(3H)-quinazolone] | 1.5 mg/kg | 33 mg/kg | 15% | 55% | 64% | 1000 mg/kg | 0.23 mg/kg | 70 mg/kg | 5 mg/kg | 0.3 mg/kg | 
4 | COc1cc2nc(CCN3CCN(c4cccc(C)c4)CC3)[nH]c(=O)c2cc1OC [Example 3, 2-(2-(1-(3-tolyl)piperazinyl-4)ethyl)-6,7-dimethoxy-4(3H)-quinazolone] | 2 mg/kg | 24 mg/kg | 13% | 41% | 69% | 60 mg/kg | 0.35 mg/kg | 200 mg/kg | 5 mg/kg | 0.32 mg/kg | 
5 | COc1cc2nc(CCN3CCN(c4ccc(C)cc4)CC3)[nH]c(=O)c2cc1OC [Example 4] | 3 mg/kg | 23 mg/kg | 51% | 65% | 125% | 70 mg/kg |  | 100 mg/kg |  | 0.65 mg/kg | 
6 | COc1cc2nc(CCN3CCN(c4cccc(C(F)(F)F)c4)CC3)[nH]c(=O)c2cc1OC [Example 5, 2-(2-(1-(3-trifluoromethylphenyl)piperazinyl-4)ethyl)-6,7-dimethoxy-4(3H)-quinazolone] | < 1 mg/kg |  |  |  |  |  |  |  |  |  | 
7 | COc1cc2nc(CCN3CCN(c4ccccc4OC)CC3)n(C)c(=O)c2cc1OC [Example 8] |  |  |  |  |  |  | 0.035 mg/kg | 350 mg/kg |  | 0.12 mg/kg | 
8 | COc1cc2nc(CCN3CCN(c4cccc(Cl)c4)CC3)[nH]c(=O)c2cc1OC [Example 12, 2-(2-(1-(3-chlorophenyl)piperazinyl-4)ethyl)-6,7-dimethoxy-4(3H)-quinazolone] | 1.5 mg/kg |  | 0% | 19% | 78% | 500 mg/kg |  |  |  |  | ED50 (mouse [2]; [11]): 34 mg/kg
9 | COc1cc2nc(CCN3CCN(c4ccc(Cl)cc4)CC3)[nH]c(=O)c2cc1OC [Example 13, 2-(2-(1-(4-chlorophenyl)piperazinyl-4)ethyl)-6,7-dimethoxy-4(3H)-quinazolone] | 2 mg/kg |  | 15% | 15% | 44% | 200 mg/kg |  |  |  |  | ED50 (mouse [2]; [11]): 46 mg/kg
10 | COc1cc2nc(CCN3CCN(c4cccc(F)c4)CC3)[nH]c(=O)c2cc1OC [Example 15, 2-(2-(1-(3-fluorophenyl)piperazinyl-4)ethyl)-6,7-dimethoxy-4(3H)-quinazolone] | 1 mg/kg |  |  |  |  |  | 0.32 mg/kg | 200 mg/kg | 4.3 mg/kg | 0.2 mg/kg | 
11 | COc1cc2nc(CCN3CCN(c4ccc(F)cc4)CC3)[nH]c(=O)c2cc1OC [Example 16, 2-(2-(1(4-fluorophenyl)piperazinyl-4)ethyl)-6,7-dimethoxy-4(3H)-quinazolone] | 2.5 mg/kg | 14 mg/kg | 10% | 49% | 103% | 65 mg/kg | 0.57 mg/kg | 300 mg/kg | 4 mg/kg | 0.6 mg/kg | 
12 | COc1ccc(N2CCN(CCc3nc4cc(OC)c(OC)cc4c(=O)[nH]3)CC2)cc1 [Example 17, 2-(2-(1-(4-methoxyphenyl)piperazinyl-4)ethyl)-6,7-dimethoxy-4(3H)-quinazolone] | 2 mg/kg |  |  |  |  |  |  |  |  |  | Blood pressure lowered by 30% by [10]: 4.5; Blood pressure lowered by 50% by [10]: > 1.5
13 | COc1cc2nc(CN3CCN(c4ccccc4OC)CC3)[nH]c(=O)c2cc1OC [Example 18, 2-(1-(2-methoxyphenyl)piperazinyl-4)methyl-6,7-dimethoxy-4(3H)-quinazolone] | 8 mg/kg |  |  | 12% | > 15% | 1000 mg/kg |  |  |  |  | 
14 | COc1cc2nc(CCCN3CCN(c4ccccc4OC)CC3)[nH]c(=O)c2cc1OC [Example 20, 2-(3-(1-(2-methoxy-phenyl)-piperazinyl-4)-n-propyl)-6,7-dimethoxy-4(3H)-quinazolone] | 2 mg/kg |  |  |  |  |  | 0.05 mg/kg | 300 mg/kg | 1.15 mg/kg | 0.65 mg/kg | 
15 | CCCC(C)(COC(N)=O)COC(N)=O [Meprobamate, reference compound] |  | 95 mg/kg | 11% | 28% | 18% | 300 mg/kg |  |  |  |  | 
16 | CN1CC[C@]23c4c5ccc(O)c4O[C@H]2[C@@H](O)C=C[C@H]3[C@H]1C5.Cl [Morphine hydrochloride, morphine hydrochloride, reference compound] |  |  |  |  |  |  |  |  |  |  | ED25 ([1]; Mus musculus): 2 mg/kg
17 | Cc1ccc(N(CC2=NCCN2)c2cccc(O)c2)cc1 [Phentolamine, phentolamine, reference compound] |  |  |  |  |  |  | 0.047 mg/kg | 200 mg/kg | 0.18 mg/kg | 0.63 mg/kg | Inhibition of the carotid sinus reflex by 30% by (carotid sinus reflex; dose for 30% inhibition): 0.1; Inhibition of the carotid sinus reflex by 50% by (carotid sinus reflex; dose for 50% inhibition): 0.5; Blood pressure lowered by 30% by [10]: 0.1; Blood pressure lowered by 50% by [10]: 0.7
